Test results published in patent US12559504B2, “Benzotriazole derivative” (UBE CORPORATION, priority 2019, dated 2026).

Legend:
NQO1 [1] = assay: NQO1 enzyme induction test (in vitro) in Hepa1c1c7 cells; format: cell-based; settings: Mus musculus, Hepa-1c1c7, 48 h, concentration to elevate the NQO1 activity by 1.5 times, about 48 hours, read-out: EC150
Method: Each NQO1 assay was carried out by modifying a known method (Anal Biochem 1998; 169: 328-, Methods Enzymol 2004; 382: 243-). Hepa1c1c7 cells (mouse hepatocyte line manufacture by DS Pharma Biomedical Co., Ltd., REF. No. 95090613) were cultured (5% CO2, 37° C.). The cells were cultured in MEMα (manufactured by FUJIFILM Wako Pure Chemical Corporation, REF. 135-15175) medium comprising 10% FBS (manufactured by GIBCO, REF. 10082) and […]/streptomycin/amphotericin B (manufactured by GIBCO, REF. 15240), and dispensed into a 96 well plate (manufactured by Costar, REF. 3610) at 2.0×10^3 cells/well. On the next day, test compound (final concentration of […]: 0.1%) dissolved into DMSO (manufactured by FUJIFILM Wako Pure Chemical Corporation, REF. 043-07216) was added to each well, and the plate was further cultured for about 48 hours.
A cell lysate manufactured by Cell signaling Technology, Inc. (REF. 9803) with the addition of a Protease Inhibitor manufactured by Roche Diagnostics K.K. (REF. 11-873580001) was used. A reaction solution (which is a solution comprising trishydrochloric acid (25 mM), albumin […], Tween-20 (0.01%), glucose-6-phosphate dehydrogenase (2 U/mL), flavin-adenine dinucleotide (5 μM), glucose-6-phosphate (1 μM), nicotinamide adenine dinucleotide phosphate (30 μM), 3-(4,5-dimethyl-2-thiazolyl)-2,5-diphenyltetrazolium bromide (MTT) (0.03%), and menadione (50 μM)), and a stop solution (which is a solution comprising dicumarol (0.3 mM) and potassium dihydrogen phosphate (5 mM), pH 7.4) were prepared. After the medium was removed, cell lysate (50 μL) was added thereto, and the resulting mixture was shaken at room temperature for 20 minutes. The reaction solution (200 μL) was added thereto, and the resulting mixture was left to stand at room temperature for 5 minutes. The stop solution (50 μL) was added thereto, and absorbance at 540 nm (reference 750 nm) was measured.
Cell number was measured by Cell Titer Glo assay (manufactured by Promega Corporation, REF. G9242) by using another plate prepared according to the same conditions as those described above, and correction of absorbance was carried out. The test result was analyzed by Excel, and the EC150 value which is the concentration to elevate the NQO1 activity by 1.5 times was calculated.

[2] = biological target: T1, GST fusion human Keap1 (amino acid residue: 325-624) protein (Homo sapiens, UniProt Q14145); assay: Keap1-Nrf2 binding inhibition test (fluorescence polarization); settings: compound concentration of 100 nM; read-out: inhibition rate
T1 construct: GST fusion human Keap1 (amino acid residue: 325-624) protein; purchased Protein tech Ag0779
Method: The inhibitory activity of each test compound on the binding between Nrf2 and Keap1 was measured by the fluorescence polarization method. A solution consisting of 20 mM tris-hydrochloride pH7.5 (NIPPON GENE CO., LTD., REF: 318-90225), 150 mM NaCl [FUJIFILM Wako Pure Chemical. Corporation, REF: 191-01665], 0.05% Tween 20 (BioRAD, REF: 161-0781), and 5 mM DTT (FUJIFILM Wako Pure Chemical Corporation, REF: 049-08972) was used as a buffer solution. To a test compound solution (70 μL) adjusted to each concentration with 10% DMSO (FUJIFILM Wako Pure Chemical Corporation, REF: 043-07216) was added a buffer solution (350 μL) comprising 6 nM FITC-labeled Nrf2 peptide (FITC-Ahx-LDEETGEFL-NH2, Invitrogen) and 0.2 mg/mL of BSA (FUJIFILM Wako Pure Chemical Corporation, REF: 017-22231). Each 120 μL of the resulting mixture was dispensed into a black 96 well plate, and a buffer solution (80 μL) comprising 2.5 nM GST fusion human Keap1 (amino acid residue: 325-624) protein (Protein tech, REF: Ag0779) was added thereto. A Keap1-free buffer solution was added to some wells to prepare negative controls. Meanwhile, compound-free wells were used as positive controls. The plate was incubated at room temperature for 30 minutes, and each fluorescence polarization at excitation wavelength of 482 nm and fluorescence wavelength of 530 nm was measured by using a plate reader Clariostar (BMG Labtech). The fluorescence polarization of the negative control was set to be 100% inhibition, fluorescence polarization of the positive control was set to be 0% inhibition, and the inhibition rate of each test compound at 100 nM was calculated by using the following equation. Inhibition rate (%)=100−((Fluorescence polarization when test compound was added−Fluorescence polarization of negative control)/(Fluorescence polarization of positive control−Fluorescence polarization of negative control))×100

NQO1 [3] = assay: NQO1 expression induction test in mouse kidney (single administration); format: in vivo; settings: Mus musculus, po, 6 h, BALB/c mouse kidney, 6 hours after administration, ratio to control group
Method: Each test compound solution for administration was prepared by dissolving or suspending each test compound into a 0.5 w/v % aqueous solution of methylcellulose (0.5% MC) (manufactured by Wako Pure Chemical Industries, Ltd.).
Each prepared test compound was orally administered to a BALB/c mouse (female, provided by Charles River Laboratories Japan, Inc.). Non-treated group was used as a control group. After 6 hours from the administration, each mouse was anesthetized with isoflurane, and euthanized with bloodletting by incising a lower aorta. Immediately, the left kidney was excised, cut into small pieces, and then the cut kidney pieces were transferred to RNA later (Thermo Fisher Scientific).
Then, mRNA was extracted from the collected kidney pieces by using NucleoSpin (registered trademark) RNA Kit (Takara Bio Inc.), each concentration was quantified by FlexStation3 (Molecular Devices), and then the concentration was adjusted to a constant concentration. A reverse transcription synthesis of cDNA was carried out from the mRNA with the constant concentration by using PrimeScript™ RT reagent Kit with gDNA Eraser and PCR Thermal Cycler (Takara Bio Inc.). Then, in addition to the resulting cDNA, SYBR (registered trademark) Premix Ex Taq™ II and NQO1, GAPDH primer (Takara Bio Inc.) were used to carry out Real-time PCR by PCR Thermal Cycler Dice Real time (Takara Bio Inc.), and the NQO1 expression was quantified by using the GAPDH expression as the reference.
In order to evaluate the NQO1 expression induction in each group, the NQO1 expression induction ratio was calculated by using the following equation. (NQO1 expression induction ratio)=(Average NQO1 expression in test compound administered group)[…](Average NQO1 expression in control group)

[4] = Metabolism test using human liver microsome fractions; format: in vitro ADME; settings: human liver microsomes, test compound 10 μmol/L, NADPH and UDP-glucuronic acid, 37° C.
Method: A reaction composition solution (comprising NADPH Regenerating System, Solution A (manufactured by Corning Inc., REF. 451220) (50 μL), NADPH Regenerating System, Solution B (manufactured by Corning Inc., REF. 451200) (10 μL), 250 mM UDP-glucuronic acid (40 μL), UGT Reaction Mix Solution B (manufactured by Corning Inc., REF. 451320) (200 μL), and distilled water (640 μL)) in which human liver microsomes (manufactured by Xenotech, Cat. No. H610) or monkey liver microsomes (manufactured by Xenotech, Cat. No. P2000) (corresponding to 1 mg of protein) were suspended was prepared. After the solution was incubated at 37° C. for 5 minutes, each test compound dissolved into DMSO (manufactured by FUJIFILM Wako Pure Chemical Corporation, Code No. 043-07216) was added to the solution so that the final concentration was set to be 10 μmol/L, and a reaction was initiated. After 0, 5, 10, 15, 20, and 30 minute(s) from the initiation of the metabolism reaction, 100 μL of the reaction solution was taken out of the reaction system, and added to 200 μL of acetonitrile to stop the reaction. After the reaction was completed, the reaction solution was subjected to a work-up such as deproteinization, and then subjected to an UV-HPLC analysis to carry out the following analysis.
The peak area of each test compound was calculated by LabSolution software (Shimadzu Corporation), and the residual ratio (%) at each culture time of test material was calculated by the following equation. Residual ratio (%)=Peak area at each culture time[…]Peak area at 0 (initial time)
Next, the residual amount (nmol/mg/mL) at each culture time of test material was calculated by the following equation. Residual amount (nmol/mg/mL)=Initial concentration of reaction solution (10 nmol/mg/mL)×residual ratio÷100
Finally, a graph in which the reaction time was plotted at horizontal axis and the residual amount was plotted at longitudinal axis was prepared on Excel, and the inclination was calculated as the elimination rate (pmol/min/mg-P) within the time range in which the graph was deemed linear.

T1 sequence (Q14145 325-624): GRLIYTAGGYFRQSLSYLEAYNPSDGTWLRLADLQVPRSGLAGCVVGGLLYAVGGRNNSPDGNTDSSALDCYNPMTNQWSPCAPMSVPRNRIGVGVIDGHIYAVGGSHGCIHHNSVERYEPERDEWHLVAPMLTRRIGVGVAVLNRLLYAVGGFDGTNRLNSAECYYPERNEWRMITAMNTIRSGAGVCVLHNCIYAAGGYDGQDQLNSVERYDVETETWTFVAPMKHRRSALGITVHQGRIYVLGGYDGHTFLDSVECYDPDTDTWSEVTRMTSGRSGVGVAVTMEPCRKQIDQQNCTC

Row | inhibition at 0.1 µM [2] [%] | SMILES | EC (1.5-fold NQO1 activity) (NQO1 [1]) [µM] | fold induction at 30 mg/kg (NQO1 [3]) | Human metabolic rate [4] | fold induction at 20 mg/kg (NQO1 [3]; Dose 20 mg/kg)
1 | ≥ 50 | CC[C@@H]1CN(Cc2cc(C(c3ccc4c(nnn4C)c3C)C(C)(C)C(=O)O)ccc2C)Cc2cc3cc(C)ccc3nc2O1 (stereo partly drawn) [Example 14-(b), 3-(1,4-dimethyl-1H-benzo[d][1,2,3]triazol-5-yl)-3-(3-(((R)-2-ethyl-8-methyl-2,3-dihydro-[1,4]oxazepino[7,6-b]quinolin-4 (5H)-yl)methyl)-4-methylphenyl)-2,2-dimethylpropanoic Acid] | 0.0005 to 0.005 | > 6 | – | –
2 | ≥ 50 | CC[C@@H]1CN(Cc2cc(C(c3ccc4c(nnn4C)c3C)C(C)(C)C(=O)O)ccc2C)Cc2c(ccc3cn[nH]c23)O1 (stereo partly drawn) [Example 20-(b), 3-(1,4-dimethyl-1H-benzo[d][1,2, 3]triazol-5-yl)-3-(3-(((R)-7-ethyl-1,7,8,10-tetrahydro-9H-[1,4]oxazepino[7,6-g]indazol-9-yl)methyl)-4-methylphenyl)-2,2-dimethylpropanoic Acid] | 0.0005 to 0.005 | – | D (200≤metabolic rate<250 pmol/min/me protein) | –
3 | ≥ 50 | CC[C@@H]1CN(Cc2cc(C(c3ccc4c(nnn4C)c3C)C(C)(C)C(=O)O)ccc2C)CC2=C(C=CC3=NCCCN32)O1 (stereo partly drawn) [Example 23, 3-(1,4-dimethyl-1H-benzo[d][1,2,3]triazol-5-yl)-3-(3-(((R)-4-ethyl-1,3,4,9,10,11-hexahydro-2H-pyrimido[1′,2′:1,6]pyrido[2,3-f][1,4]oxazepin-2-yl)methyl)-4-methylphenyl)-2,2-dimethylpropanoic Acid] | 0.05 to 0.5 | ≤ 3 | – | –
4 | ≥ 50 | CC[C@@H]1CN(Cc2cc(C(c3ccc4c(nnn4C)c3C)C(C)(C)C(=O)O)ccc2C)Cc2ccc3ccccc3c2O1 (stereo partly drawn) [Example 24-(b), 3-(1,4-dimethyl-1H-benzo[d][1,2,3]triazol-5-yl)-3-(3-(((R)-2-ethyl-2,3-dihydronaphtho[2,1-f][1,4]oxazepin-4(5H)-yl)methyl)-4-methylphenyl)-2,2-dimethylpropanoic Acid] | 0.005 to 0.05 | > 6 | – | –
5 | ≥ 50 | CC[C@@H]1CN(Cc2cc(C(c3ccc4c(nnn4C)c3C)C(C)(C)C(=O)O)ccc2C)Cc2ccc3cccnc3c2O1 (stereo partly drawn) [Example 27-(b), 3-(1,4-dimethyl-1H-benzo[d][1,2,3]triazol-5-yl)-3-(3-(((R)-2-ethyl-2,3-dihydro-[1,4]oxazepino[6,7-h]quinolin-4 (5H)-yl)methyl)-4-methylphenyl)-2,2-dimethylpropanoic Acid] | 0.005 to 0.05 | ≤ 3 | – | –
6 | ≥ 50 | CC[C@@H]1CN(Cc2cc(C(c3ccc4c(nnn4C)c3C)C(C)(C)C(=O)O)ccc2C)Cc2ccc3ncccc3c2O1 (stereo partly drawn) [Example 28-(b), 3-(1,4-dimethyl-1H-benzo[d][1,2,3]triazol-5-yl)-3-(3-(((R)-2-ethyl-2,3-dihydro-[1,4]oxazepino[7,6-f]quinolin-4(5H)-yl)methyl)-4-methylphenyl)-2,2-dimethylpropanoic Acid] | 0.0005 to 0.005 | 3 to 6 | – | –
7 | ≥ 50 | CC[C@@H]1CN(Cc2cc(C(c3ccc4c(nnn4C)c3C)C(C)(C)C(=O)O)ccc2C)Cc2cc3[nH]ncc3cc2O1 (stereo partly drawn) [Example 64-(b), 3-(1,4-dimethyl-1H-benzo[d][1,2,3)triazol-5-yl)-3-(3-(((R)-6-ethyl-1,6,7,9-tetrahydro-8H-(1,4]oxazepino[7,6-f]indazol-8-yl)methyl)-4-methylphenyl)-2,2-dimethylpropanoic Acid] | 0.005 to 0.05 | – | B (100≤metabolic rate<150 pmol/min/mg protein) | –
8 | – | CC[C@@H]1CN(Cc2cc(C(c3ccc4c(nnn4C)c3C)C3(C(=O)O)CCCC3)ccc2C)Cc2cc3ncccc3cc2O1 (stereo partly drawn) [Example 83-(b), 1-((1,4-dimethyl-1H-benzo[d][1,2,3]triazol-5-yl) (3-(((R)-2-ethyl-2,3-dihydro-[1,4]oxazepino[7,6-g]quinolin-4 (5H)-yl)methyl)-4-methylphenyl)methyl)cyclopentane-1-carboxylic Acid] | 0.005 to 0.05 | – | C (150≤metabolic rate<200 pmol/min/mg protein) | > 6
